In article PMC11356571, “The Comparative Metabolism of a Novel Hepatocellular Carcinoma Therapeutic Agent, 2,3-Diamino-N-(4-(benzo[d]thiazol-2-yl)phenyl)propanamide, in Human and Animal Hepatocytes” (Metabolites, 2024):

What was measured:
[1] = target: T1, CYP1A2 (Homo sapiens, UniProt P05177); assay: Incubation with human cDNA-expressed CYP1A2; type: in vitro ADME; conditions: CYP1A2, 30 min at 37 °C with NADPH; ETN101 10 μM or M1 1 μM
T1 construct: purchased Cypex Ltd. (Dundee, UK)
T1 sequence (P05177 1-516): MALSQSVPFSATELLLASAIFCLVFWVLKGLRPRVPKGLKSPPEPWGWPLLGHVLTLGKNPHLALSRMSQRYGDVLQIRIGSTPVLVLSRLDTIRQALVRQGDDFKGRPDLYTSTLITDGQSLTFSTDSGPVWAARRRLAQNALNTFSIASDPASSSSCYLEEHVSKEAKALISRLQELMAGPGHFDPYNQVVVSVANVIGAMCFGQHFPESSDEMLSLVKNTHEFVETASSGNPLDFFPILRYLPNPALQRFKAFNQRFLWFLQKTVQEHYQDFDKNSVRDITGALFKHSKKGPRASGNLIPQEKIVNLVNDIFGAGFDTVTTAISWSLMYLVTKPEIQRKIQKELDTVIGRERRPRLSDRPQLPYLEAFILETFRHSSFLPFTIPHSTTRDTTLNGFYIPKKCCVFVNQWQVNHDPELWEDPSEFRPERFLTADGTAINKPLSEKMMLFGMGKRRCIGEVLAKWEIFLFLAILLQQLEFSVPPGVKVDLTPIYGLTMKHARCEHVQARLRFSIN
Description: ETN101 or M1 was incubated with nine human cDNA-expressed CYP enzymes (1A2, 2A6, 2B6, 2C8, 2C9, 2C19, 2D6, 2E1, and 3A4) to identify the CYPs involved in the metabolism of ETN101. Based on the preliminary study, the incubation conditions were determined as follows: Briefly, reaction mixtures of 50 μL containing ETN101 (final concentration: 10 μM) or M1 (final concentration: 1 μM), and CYPs (final amount: 5 pmol for CYP1A2, 2A6, 2C8, 2C9, 2C19, 2D6, and 3A4; 10 pmol for CYP2B6 and 2E1) were prepared in 0.1 M potassium phosphate buffer. The reaction was initiated by adding 50 μL of NADPH- regenerating system; the mixtures were incubated for 0 min or 30 min at 37 °C in triplicate. Reactions were terminated by the addition of 100 μL of ice-cold acetonitrile containing the IS (camptothecin, 200 ng/mL). Samples were centrifuged at 13,000 rpm for 5 min at 4 °C. An aliquot of 2 μL supernatant was injected in LC–MS/MS system.
(§1) For enzyme characterization, an Agilent 6460 triple quadrupole mass spectrometer coupled with a 1260 HPLC system (Agilent Technologies, Santa Clara, CA, USA) and a Kinetex Halo® C18 column (2.7 μm, 2.1 × 50 mm, Advanced Material Technology, Wilmington, DE, USA) were used for chromatographic separation. […] ETN101, M1, and M2 were detected via MRM using ESI in the positive mode. […]

[2] = target: T2, CES2 (Homo sapiens, UniProt O00748); assay: Incubation with human recombinant CES2; type: in vitro ADME; conditions: CES2, 60 min at 37 °C; ETN101 10 μM or M1 1 μM
T2 construct: purchased Corning Life Sciences (Woburn, MA, USA)
T2 sequence (O00748 27-559): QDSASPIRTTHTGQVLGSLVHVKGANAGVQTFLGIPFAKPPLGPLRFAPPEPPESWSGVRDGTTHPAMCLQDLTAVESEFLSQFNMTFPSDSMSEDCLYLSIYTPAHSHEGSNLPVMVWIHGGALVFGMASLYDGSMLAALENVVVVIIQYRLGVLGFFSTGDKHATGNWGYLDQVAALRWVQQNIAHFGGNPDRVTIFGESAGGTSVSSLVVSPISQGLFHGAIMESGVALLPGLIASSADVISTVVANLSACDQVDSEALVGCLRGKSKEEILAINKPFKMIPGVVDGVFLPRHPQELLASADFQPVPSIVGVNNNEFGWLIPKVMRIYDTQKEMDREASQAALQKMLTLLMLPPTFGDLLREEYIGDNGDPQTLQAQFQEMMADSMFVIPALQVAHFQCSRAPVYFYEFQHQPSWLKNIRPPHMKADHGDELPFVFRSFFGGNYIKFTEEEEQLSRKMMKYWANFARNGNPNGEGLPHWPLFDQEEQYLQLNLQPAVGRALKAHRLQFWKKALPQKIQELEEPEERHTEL
Description: To screen for CES enzymes responsible for the hydrolysis of ETN101 or M1, 50 μL of reaction mixtures containing human cDNA-expressed CES enzymes (CES1b, CES1c, and CES2) at the concentration of 1 mg/mL, 10 μM ETN101, or 1 μM M1 in 0.1 M potassium phosphate buffer were incubated at 37 °C for 0 min or 60 min in triplicate. The reactions were quenched by adding 50 μL of ice-cold acetonitrile containing the internal standard (camptothecin, 10 μg/mL). Following centrifugation at 13,000 rpm for 5 min, a 2 μL aliquot of the supernatant was injected into the LC-MS/MS system. The reliability of the analysis was confirmed by incorporating three different levels of quality control samples at the beginning and end of each analytical batch.
as §1, with “separation. The mobile phases comprised 0.1% (v/v) formic acid in water (mobile phase A) and 0.1% formic acid (v/v) in acetonitrile (mobile phase B).” for “separation.”

SMILES: NCC(N)C(=O)Nc1ccc(-c2nc3ccccc3s2)cc1 (stereo not shown) [ETN101, 2,3-diamino-N-(4-(benzo[d]thiazol-2-yl)phenyl)propanamide]
- Percentage remaining [1]: 126.3%
- Percentage remaining [2]: 113.4%

SMILES: Nc1ccc(-c2nc3ccccc3s2)cc1 [M1, 2-(4-aminophenyl)benzothiazole]
- Percentage remaining [1]: 5.3%
- Percentage remaining [2]: 91.7%
